Experimental data: PMC5496578 (Beilstein Journal of Organic Chemistry, 2017)
Like-named read-outs stand apart in the source and are kept apart here.

How the values were obtained:
human placental 17β-HSD1 [1] = target: T1, human placental 17β-HSD1 (Homo sapiens, UniProt P14061); test: in vitro radiosubstrate incubation, 17β-HSD1 inhibition (estrone to 17β-estradiol conversion); type: biochemical; settings: for remaining activity at 10 µM: read-out: Relative conversion ± SD
T1 sequence (P14061 1-328): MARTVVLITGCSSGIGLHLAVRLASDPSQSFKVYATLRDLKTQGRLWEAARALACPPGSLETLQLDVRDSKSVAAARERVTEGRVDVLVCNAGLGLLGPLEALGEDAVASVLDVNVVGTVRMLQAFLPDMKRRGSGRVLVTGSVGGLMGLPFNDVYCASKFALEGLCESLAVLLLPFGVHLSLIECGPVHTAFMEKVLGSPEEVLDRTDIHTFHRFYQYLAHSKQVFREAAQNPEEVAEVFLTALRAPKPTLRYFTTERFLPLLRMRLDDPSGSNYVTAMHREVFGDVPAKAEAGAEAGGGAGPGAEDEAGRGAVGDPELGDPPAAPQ
Procedure: Determination of 17β-HSD1 inhibition
The inhibitory effects exerted on 17β-HSD1 activity by the newly synthesized conjugates were determined via an in vitro radiosubstrate incubation method described in detail earlier.[1]
Radiolabeled Chemicals (St. Louis, MO, USA).
NADPH cofactor, other chemicals and solvents of analytical grade purity were purchased from Sigma (St. Louis, MO, USA) and Fluka (Buchs, Switzerland).
Kieselgel-G TLC layers (Si 254 F, 0.25 mm thick) were obtained from Merck (Darmstadt, Germany). Human term placenta specimens were collected and used with the ethical approval of the Institutional Human Investigation Review Board.
Human term placenta specimens were combined and homogenized with an Ultra-Turrax in 0.1 M HEPES buffer (pH 7.3) containing 1 mM EDTA and 1 mM dithiotreitol, and the cytosol was obtained by fractionated centrifugation. The substrate tritium- […]
propylene glycol in HEPES buffer solution, whereas the test compounds were applied in 10 µl of dimethyl sulfoxide solution. (These organic solvent contents in the 200 µl […]
activity substantially.) Cofactor NADPH was used in excess concentration (100 µM).
The enzymatic reaction was started by the addition of the cytosol aliquots. Incubation was carried out at 37 °C for 2.5 min and was then stopped by the addition of ethyl […]
were added to the samples. The two steroids were separated by TLC with the solvent system dichloromethane/diisopropyl ether/ethyl acetate (70:15:15 v/v) and UV spots were used to trace the separated steroids. Spots were cut out and the radioactivity of […]
counting. Test compounds were applied at 10 µM and their inhibitory effects were expressed by relative conversions, in comparison with the transformation measured in the noninhibited control incubation. Two measurements were performed for each test compound and the mean was calculated. The IC50 values (the inhibitor concentration which decreases the enzyme activity to 50%) were determined for the […]
In these cases, conversions were measured at different concentrations in the interval 0.001–50 µM. IC50 results were calculated by using unweighted iterative least-squares logistic curve-fitting by means of the “absolute IC50 calculation” function of GraphPad Prism 4.0. The IC50 of unlabeled […]
1 Bacsa, I.; Jójárt, R.; Schneider, G.; Wölfling, J.; Maróti, P.; Herman, B. E.; Szécsi,
2 Szabó, J.; Jerkovics N.; Schneider G.; Wölfling J.; Bózsity N.; Minorics R.; Zupkó I.;

human placental 17β-HSD1 [2] = target: T1, human placental 17β-HSD1; parameters: method as in PMID 26476182, PMID 27424610; settings: precursors marked with asterisk; cited from earlier work

Row | Structure (SMILES) | remaining activity at 10 µM (human placental 17β-HSD1 [1]) | further results
1 | C[C@@]12CC[C@@H]3c4ccc(O)c(C#Cc5ccc(C(F)(F)F)cc5)c4CC[C@H]3[C@@H]1CCC2=O [Compound 10e] | 85 ± 1% | –
2 | COc1cc2c(cc1C#Cc1ccc(F)cc1)[C@H]1CC[C@@]3(C)C(=O)CC[C@H]3[C@@H]1CC2 [Compound 9d] | 94 ± 5% | –
3 | COc1cc2c(cc1I)[C@H]1CC[C@@]3(C)C(=O)CC[C@H]3[C@@H]1CC2 [Compound 4] | – | IC50 (human placental 17β-HSD1 [2]): > 10 µM
4 | COc1ccc(CCc2c(OC)ccc3c2CC[C@@H]2[C@@H]3CC[C@@]3(C)C(=O)CC[C@@H]23)cc1 [Compound 19] | 94 ± 1% | –
5 | COc1ccc(C#Cc2cc3c(cc2O)CC[C@@H]2[C@@H]3CC[C@@]3(C)C(=O)CC[C@@H]23)cc1 [Compound 8c] | – | IC50 (human placental 17β-HSD1 [1]): 0.23 µM
6 | C[C@@]12CC[C@@H]3c4cc(C#Cc5ccccc5)c(O)cc4CC[C@H]3[C@@H]1CCC2=O [Compound 8a] | – | IC50 (human placental 17β-HSD1 [1]): 0.15 µM
7 | COc1ccc(/C=C\c2cc3c(cc2OC)CC[C@@H]2[C@@H]3CC[C@@]3(C)C(=O)CC[C@@H]23)cc1 [Compound 13] | 70 ± 6% | –
8 | COc1ccc(CCc2c(O)ccc3c2CC[C@@H]2[C@@H]3CC[C@@]3(C)C(=O)CC[C@@H]23)cc1 [Compound 18] | 98 ± 3% | –
9 | Cc1ccc(C#Cc2c(O)ccc3c2CC[C@@H]2[C@@H]3CC[C@@]3(C)C(=O)CC[C@@H]23)cc1 [Compound 10b] | 89 ± 0.4% | –
10 | COc1ccc2c(c1C#Cc1ccc(F)cc1)CC[C@@H]1[C@@H]2CC[C@@]2(C)C(=O)CC[C@@H]12 [Compound 11d] | 83 ± 1% | –
11 | COc1ccc(/C=C/c2c(OC)ccc3c2CC[C@@H]2[C@@H]3CC[C@@]3(C)C(=O)CC[C@@H]23)cc1 [Compound 15] | 80 ± 12% | –
12 | COc1cc2c(cc1C#Cc1ccc(C(F)(F)F)cc1)[C@H]1CC[C@@]3(C)C(=O)CC[C@H]3[C@@H]1CC2 [Compound 9e] | 76 ± 1% | –
13 | COc1ccc(C#Cc2cc3c(cc2OC)CC[C@@H]2[C@@H]3CC[C@@]3(C)C(=O)CC[C@@H]23)cc1 [Compound 9c] | 85 ± 1% | –
14 | C[C@@]12CC[C@@H]3c4cc(C#Cc5ccc(C(F)(F)F)cc5)c(O)cc4CC[C@H]3[C@@H]1CCC2=O [Compound 8e] | – | IC50 (human placental 17β-HSD1 [1]): 0.93 µM
15 | COc1cc2c(cc1C#Cc1ccc(C)cc1)[C@H]1CC[C@@]3(C)C(=O)CC[C@H]3[C@@H]1CC2 [Compound 9b] | 84 ± 5% | –
16 | C[C@@]12CC[C@@H]3c4ccc(O)c(C#Cc5ccc(F)cc5)c4CC[C@H]3[C@@H]1CCC2=O [Compound 10d] | 96 ± 7% | –
17 | COc1cc2c(cc1C#Cc1ccccc1)[C@H]1CC[C@@]3(C)C(=O)CC[C@H]3[C@@H]1CC2 [Compound 9a] | 88 ± 12% | –
18 | COc1ccc(-c2cc3c4c(ccc3o2)[C@H]2CC[C@@]3(C)C(=O)CC[C@H]3[C@@H]2CC4)cc1 [Compound 14] | 102 ± 6% | –
19 | COc1ccc(-c2cc3cc4c(cc3o2)CC[C@@H]2[C@@H]4CC[C@@]3(C)C(=O)CC[C@@H]23)cc1 [Compound 12] | 92 ± 2% | –
20 | COc1ccc2c(c1C#Cc1ccc(C(F)(F)F)cc1)CC[C@@H]1[C@@H]2CC[C@@]2(C)C(=O)CC[C@@H]12 [Compound 11e] | 79 ± 3% | –
21 | COc1ccc(CCc2cc3c(cc2O)CC[C@@H]2[C@@H]3CC[C@@]3(C)C(=O)CC[C@@H]23)cc1 [Compound 16] | – | IC50 (human placental 17β-HSD1 [1]): 0.47 µM
22 | Cc1ccc(C#Cc2cc3c(cc2O)CC[C@@H]2[C@@H]3CC[C@@]3(C)C(=O)CC[C@@H]23)cc1 [Compound 8b] | – | IC50 (human placental 17β-HSD1 [1]): 1.4 µM
23 | COc1ccc(CCc2cc3c(cc2OC)CC[C@@H]2[C@@H]3CC[C@@]3(C)C(=O)CC[C@@H]23)cc1 [Compound 17] | 63 ± 8% | –
24 | COc1ccc2c(c1C#Cc1ccc(C)cc1)CC[C@@H]1[C@@H]2CC[C@@]2(C)C(=O)CC[C@@H]12 [Compound 11b] | 52 ± 12% | –
25 | COc1ccc2c(c1C#Cc1ccccc1)CC[C@@H]1[C@@H]2CC[C@@]2(C)C(=O)CC[C@@H]12 [Compound 11a] | 92 ± 12% | –
26 | COc1ccc(C#Cc2c(OC)ccc3c2CC[C@@H]2[C@@H]3CC[C@@]3(C)C(=O)CC[C@@H]23)cc1 [Compound 11c] | 83 ± 8% | –
27 | COc1ccc(C#Cc2c(O)ccc3c2CC[C@@H]2[C@@H]3CC[C@@]3(C)C(=O)CC[C@@H]23)cc1 [Compound 10c] | 91 ± 2% | –
28 | C[C@@]12CC[C@@H]3c4cc(C#Cc5ccc(F)cc5)c(O)cc4CC[C@H]3[C@@H]1CCC2=O [Compound 8d] | – | IC50 (human placental 17β-HSD1 [1]): 0.3 µM
29 | C[C@@]12CC[C@@H]3c4ccc(O)c(C#Cc5ccccc5)c4CC[C@H]3[C@@H]1CCC2=O [Compound 10a] | 92 ± 15% | –
30 | COc1ccc2c(c1I)CC[C@@H]1[C@@H]2CC[C@@]2(C)C(=O)CC[C@@H]12 [Compound 6] | – | IC50 (human placental 17β-HSD1 [2]): 0.56 µM
